Laboratory results published in ChEMBL document CHEMBL5331060, “Bisindole natural products: A vital source for the development of new anticancer drugs” (Eur J Med Chem, 2022).
Values after ≈ are worked out from the molar mass of the structure shown. One block for each molecule: values may come before it.

How the values were obtained:
Type in all cases: functional, cell-based
[1] = system: A549; experiment: Antiproliferative activity against human A549 cells assessed as inhibition of cell growth incubated for 72 hrs by SRB assay; details: A549, 72 h
[2] = system: MCF7; experiment: Antiproliferative activity against human MCF7 cells assessed as inhibition of cell growth incubated for 72 hrs by SRB assay; details: MCF7, 72 h
[3] = system: HL-60; experiment: Antiproliferative activity against human HL-60 cells assessed as inhibition of cell growth incubated for 48 hrs by WST-1 assay; details: HL-60, 48 h
[4] = system: K562; experiment: Antiproliferative activity against human K562 cells assessed as inhibition of cell growth incubated for 48 hrs by WST-1 assay; details: K562, 48 h
[5] = system: AGS; experiment: Antiproliferative activity against human AGS cells assessed as inhibition of cell growth incubated for 24 hrs by MTT assay
[6] = system: L1210; experiment: Antiproliferative activity against mouse L1210 cells assessed as inhibition of cell growth incubated for 24 hrs by MTT assay; details: L1210, 24 h
[7] = system: A549; experiment: Antiproliferative activity against human A549 cells assessed as inhibition of cell growth by MTT assay
[8] = system: K562; experiment: Antiproliferative activity against human K562 cells assessed as inhibition of cell growth by MTT assay
[9] = system: SW480; experiment: Antiproliferative activity against human SW480 cells assessed as inhibition of cell growth incubated for 48 hrs by MTT assay; details: SW480, 48 h
[10] = system: SMMC-7721; experiment: Antiproliferative activity against human SMMC-7721 cells assessed as inhibition of cell growth incubated for 48 hrs by MTT assay; details: SMMC-7721, 48 h
[11] = system: MCF7; experiment: Antiproliferative activity against human MCF7 cells assessed as inhibition of cell growth incubated for 48 hrs by MTT assay; details: MCF7, 48 h
[12] = system: HL-60; experiment: Antiproliferative activity against human HL-60 cells assessed as inhibition of cell growth incubated for 48 hrs by MTT assay; details: HL-60, 48 h
[13] = system: A549; experiment: Antiproliferative activity against human A549 cells assessed as inhibition of cell growth incubated for 48 hrs by MTT assay; details: A549, 48 h
[14] = system: SMMC-7721; experiment: Antiproliferative activity against human SMMC-7721 cells assessed as inhibition of cell growth incubated for 48 hrs by MTS assay; details: SMMC-7721, 48 h

IC50 [5]: 1.1 µg/mL (≈ 2.25 µM) | IC50 [6]: 1.1 µg/mL (≈ 2.25 µM)
Compound: O=C1N[C@H](c2c[nH]c3cc(Br)ccc23)CN[C@H]1c1c[nH]c2cc(Br)ccc12

IC50 [7]: 24.2 µM | IC50 [8]: 24.2 µM
Compound: CO[C@@]1(C(=O)c2c[nH]c3cc(O)ccc23)N=C(c2c[nH]c3ccccc23)C(=O)N1

IC50 [7]: 24.2 µM | IC50 [8]: 24.2 µM
Compound: CO[C@@]1(C(=O)c2c[nH]c3ccccc23)N=C(c2c[nH]c3cc(Br)ccc23)C(=O)N1

IC50 [7]: > 90 µM | IC50 [8]: > 90 µM
Compound: O=C(NCC(=O)c1c[nH]c2cc(Br)ccc12)NC(=O)c1c[nH]c2cc(O)ccc12

IC50 [5]: 1.1 µg/mL (≈ 2.26 µM) | IC50 [6]: 1.1 µg/mL (≈ 2.26 µM)
Compound: O=C1NC[C@H](c2c[nH]c3cc(Br)ccc23)N=C1c1c[nH]c2cc(Br)ccc12 [HAMACANTHIN B]

IC50 [7]: > 90 µM | IC50 [8]: > 90 µM
Compound: O=C(NCC(=O)c1c[nH]c2ccccc12)NC(=O)c1c[nH]c2cc(O)ccc12

IC50 [5]: 1.1 µg/mL (≈ 2.61 µM) | IC50 [6]: 1.1 µg/mL (≈ 2.61 µM)
Compound: O=C(c1nc(-c2c[nH]c3cc(Br)ccc23)c[nH]1)c1c[nH]c2cc(O)ccc12 [BROMOTOPSENTIN]

IC50 [5]: 1.1 µg/mL (≈ 2.7 µM) | IC50 [6]: 1.1 µg/mL (≈ 2.7 µM)
Compound: O=C1N[C@H](c2c[nH]c3ccccc23)CN=C1c1c[nH]c2cc(Br)ccc12

IC50 [7]: 24.2 µM | IC50 [8]: 24.2 µM
Compound: CO[C@@]1(C(=O)c2c[nH]c3cc(O)ccc23)N=C(c2c[nH]c3cc(Br)ccc23)C(=O)N1

IC50 [1]: > 10 µM | IC50 [2]: < 10 µM
Compound: CC[C@@H]1CN(C)[C@H]2Cc3c([nH]c4ccccc34)[C@H](c3ccc4c5c([nH]c4c3)[C@]3(C(=O)OC)C[C@@H]4C[C@H](CC)[C@@H]3N(CC5)C4)C[C@@H]1[C@@H]2C(=O)OC

IC50 [8]: 2.2 µM
Compound: CC(=O)C[C@@H]1c2c([nH]c3ccccc23)[C@H](c2c[nH]c3ccccc23)[C@H]1C(C)=O

IC50 [7]: 24.2 µM | IC50 [8]: 24.2 µM
Compound: CO[C@@]1(C(=O)c2c[nH]c3ccccc23)N=C(c2c[nH]c3ccccc23)C(=O)N1

More lines, now with the values behind:

Compound: CC[C@@H]1CN(C)[C@H]2Cc3c([nH]c4ccccc34)[C@H](c3ccc4c5c([nH]c4c3)[C@@H]3C[C@@H]4C[C@H](CC)[C@@H]3N(CC5)[C@@H]4CC(C)=O)C[C@H]1[C@@H]2C(=O)OC
IC50 [1]: < 10 µM | IC50 [2]: < 10 µM

Compound: CC[C@@H]1CN(C)[C@H]2Cc3c([nH]c4ccccc34)[C@H](c3ccc4[nH]c5c(c4c3)CCN3C[C@@H]4C[C@@H](CC)[C@H]3[C@@H]5C4)C[C@H]1[C@@H]2C(=O)OC
IC50 [1]: < 10 µM | IC50 [2]: < 10 µM

Compound: CC/C1=C/N(C=O)CCc2c([nH]c3ccccc23)[C@@](C(=O)OC)(c2cc3c(cc2OC)N(C)[C@H]2[C@@](O)(C(=O)OC)[C@H](OC(C)=O)[C@]4(CC)C=CCN5CC[C@]32[C@@H]54)CC(=O)C1
IC50 [3]: 56.2 µM | IC50 [4]: 56.2 µM

Compound: C/C=C1\CN(C)[C@H]2Cc3c([nH]c4ccccc34)[C@H](c3c(OC)ccc4c5c([nH]c34)[C@]3(C(=O)OC)C[C@@H]4C[C@H](CC)[C@@H]3N(CC5)[C@@H]4CC(C)=O)C[C@H]1[C@@H]2C(=O)OC
IC50 [1]: < 10 µM | IC50 [2]: < 10 µM

Compound: CC[C@@H]1CN(C)[C@H]2Cc3c([nH]c4ccccc34)[C@H](c3ccc4c5c([nH]c4c3)[C@]3(C(=O)OC)C[C@@H]4C[C@H](CC)[C@@H]3N(CC5)[C@@H]4CCOC)C[C@H]1[C@@H]2C(=O)OC
IC50 [1]: 1.19 µM | IC50 [2]: 2.25 µM

Compound: CC[C@]12C=CCN3CCc4c(n(c5cc(OC)ccc45)[C@@H](c4cc5c(cc4OC)NC4=C(C(=O)OC)C[C@]6(CC)CCCN7CC[C@@]45[C@@H]76)C1)[C@@H]32
IC50 [9]: 3.24 µM | IC50 [10]: 3.24 µM | IC50 [11]: 3.24 µM | IC50 [12]: 3.24 µM | IC50 [13]: 3.24 µM

Compound: CC[C@]12CCCN3CCc4c(n(c5ccccc45)[C@@H](c4cc5c(cc4OC)NC4=C(C(=O)OC)C[C@]6(CC)CCCN7CC[C@@]45[C@@H]76)C1)[C@@H]32
IC50 [9]: 3.24 µM | IC50 [10]: 3.24 µM | IC50 [11]: 3.24 µM | IC50 [12]: 3.24 µM | IC50 [13]: 3.24 µM

Compound: CC[C@]12C=CCN3CC[C@@]4(c5cc([C@@]6(C(=O)OC)C[C@@H]7CC(=O)N(CCc8c6[nH]c6ccccc86)C7)c(OC)cc5N(C)[C@H]4[C@@](O)(C(=O)OC)C1)[C@@H]32
IC50 [3]: 9.1 µM | IC50 [4]: 9.3 µM

Compound: CC[C@]12C=CCN3CC[C@]4(C(=C(C(=O)OC)C1)Nc1cc5c(cc14)[C@@H]1[C@H](O5)[C@@H](O)[C@@]4(CC)C=C(C(=O)OC)C5Nc6c(ccc(OC)c6O)[C@@]56CCN1[C@@H]46)[C@@H]32 (some centres undefined)
IC50 [14]: 1.72 µM

Compound: CC[C@]12C=CCN3CC[C@]4(C(=C(C(=O)OC)C1)Nc1cc(OC)c([C@@H]5[C@H]6O[C@H]6[C@@]6(CC)C=C(C(=O)OC)C7Nc8c(cc(O)c(OC)c8OC)[C@@]78CCN5[C@@H]68)cc14)[C@@H]32 (some centres undefined)
IC50 [14]: 2.01 µM

Compound: C/C=C1/CN(C)[C@H]2Cc3c([nH]c4ccccc34)[C@H](c3ccc4[nH]c5c(c4c3)CCN3[C@H]4[C@@H](CC)C[C@H](C[C@@]54C(=O)OC)[C@@H]3CC(C)=O)C[C@H]1[C@@H]2C(=O)OC
IC50 [1]: < 10 µM | IC50 [2]: < 10 µM

Compound: CCC(=O)C[C@@H]1CN(C=O)CCc2c([nH]c3ccccc23)[C@@](C(=O)OC)(c2cc3c(cc2OC)N(C)[C@@H]2[C@]34CCN3CC=C[C@@](CC)(C[C@]2(O)C(=O)OC)[C@H]34)C1
IC50 [3]: 56.2 µM | IC50 [4]: 56.2 µM

Compound: CC[C@]12CN3CC[C@@]45C(=Nc6ccccc64)[C@@](C(=O)OC)(c4cc6c(cc4OC)N(C)[C@H]4[C@@](O)(C(=O)OC)[C@H](OC(C)=O)[C@]7(CC)C=CCN8CC[C@]64[C@@H]87)C[C@H]([C@H]1O2)[C@H]35
IC50 [3]: 56.2 µM | IC50 [4]: 56.2 µM

Compound: CC[C@@H]1CN(C)[C@H]2Cc3c([nH]c4ccccc34)[C@H](c3cc4[nH]c5c(c4cc3OC)CCN3C[C@H]4C[C@H](CC)[C@H]3[C@@]5(C(=O)OC)C4)C[C@H]1[C@@H]2C(=O)OC
IC50 [1]: < 10 µM | IC50 [2]: < 10 µM

Compound: CC[C@@H]1CN(C)[C@H]2Cc3c([nH]c4ccccc34)[C@H](c3ccc4[nH]c5c(c4c3)CCN3[C@H](CC(C)=O)[C@@H]4C[C@@H](CC)[C@H]3[C@]5(C(=O)OC)C4)C[C@H]1[C@@H]2C(=O)OC
IC50 [1]: 10.9 µM | IC50 [2]: 10.9 µM

Compound: CC[C@@H]1CN(C)[C@H]2Cc3c([nH]c4ccccc34)[C@H](c3cc4c5c([nH]c4cc3OC)[C@@]3(C(=O)OC)C[C@H]4C[C@@H](CC)[C@@H]3N(CC5)C4)C[C@H]1[C@@H]2C(=O)OC
IC50 [1]: > 10 µM | IC50 [2]: < 10 µM

Compound: C/C=C1\CN(C)[C@H]2Cc3c([nH]c4ccccc34)[C@H](c3c(OC)ccc4c5c([nH]c34)[C@]3(C(=O)OC)C[C@@H]4C[C@H](CC)[C@@H]3N(CC5)C4)C[C@H]1[C@@H]2C(=O)OC
IC50 [1]: < 10 µM | IC50 [2]: < 10 µM

Compound: C/C=C1\CN(C)[C@H]2Cc3c([nH]c4ccccc34)[C@H](c3cc4[nH]c5c(c4cc3OC)CCN3C[C@H]4C[C@H](CC)[C@H]3[C@H]5C4)C[C@H]1[C@@H]2C(=O)OC
IC50 [1]: < 10 µM | IC50 [2]: < 10 µM

Compound: CC[C@]12C=CCN3CCc4c(n(c5ccccc45)[C@@H](c4cc5c(cc4OC)NC4=C(C(=O)OC)C[C@]6([C@@H](C)OC(C)=O)CCCN7CC[C@@]45[C@@H]76)C1)[C@@H]32
IC50 [9]: 3.24 µM | IC50 [10]: 3.24 µM | IC50 [11]: 3.24 µM | IC50 [12]: 3.24 µM | IC50 [13]: 3.24 µM

Compound: CC[C@@H]1CN(C)[C@H]2Cc3c([nH]c4ccccc34)[C@H](c3cc4[nH]c5c(c4cc3OC)CCN3[C@H](CC(C)=O)[C@H]4C[C@H](CC)[C@H]3[C@@]5(C(=O)OC)C4)C[C@H]1[C@@H]2C(=O)OC
IC50 [1]: > 10 µM | IC50 [2]: < 10 µM

Compound: CC[C@@H]1CN(C)[C@H]2Cc3c([nH]c4ccccc34)[C@H](c3c(OC)ccc4c5c([nH]c34)[C@]3(C(=O)OC)C[C@@H]4C[C@H](CC)[C@@H]3N(CC5)[C@@H]4CC(C)=O)C[C@H]1[C@@H]2C(=O)OC
IC50 [1]: 10.9 µM | IC50 [2]: 10.9 µM

Compound: C/C=C1/CN2COC[C@]3(C(=O)OC)[C@@H]1C[C@@H](c1c(OC)ccc4c1NC1[C@@]4(O)CCN4C[C@H]5C[C@H](CC)[C@H]4[C@@]1(C(=O)OC)C5)c1[nH]c4ccccc4c1C[C@]23C (some centres undefined)
IC50 [9]: 10.3 µM | IC50 [10]: 10.3 µM | IC50 [11]: 4.7 µM | IC50 [12]: 10.3 µM | IC50 [13]: 10.3 µM

Compound: C/C=C1/CN2COC[C@]3(C(=O)OC)[C@@H]1C[C@@H](c1cccc4c5c([nH]c14)[C@]1(C(=O)OC)C[C@@H]4C[C@H](CC)[C@@H]1N(CC5)[C@@H]4CC(C)=O)c1[nH]c4ccccc4c1C[C@]23C
IC50 [9]: 2.9 µM | IC50 [10]: 2.9 µM | IC50 [11]: 2.9 µM | IC50 [12]: 2.9 µM | IC50 [13]: 2.9 µM

Compound: C/C=C1/CN(C)[C@H]2Cc3c([nH]c4ccccc34)[C@H](c3ccc4[nH]c5c(c4c3)CCN3C[C@@H]4C[C@H](CC)[C@H]3[C@@H]5C4)C[C@H]1[C@@H]2C(=O)OC
IC50 [1]: < 10 µM | IC50 [2]: < 10 µM

Compound: C/C=C1/CN(C)[C@@]2(C)Cc3c([nH]c4ccccc34)[C@H](c3c(OC)ccc4c3NC3[C@@]4(O)CCN4C[C@H]5C[C@H](CC)[C@H]4[C@@]3(C(=O)OC)C5)C[C@H]1[C@]2(COC(C)=O)C(=O)OC (some centres undefined)
IC50 [9]: 2.9 µM | IC50 [10]: 2.9 µM | IC50 [11]: 2.9 µM | IC50 [12]: 2.9 µM | IC50 [13]: 2.9 µM
